Source: patent US20260055097A9, “NRF2 PROTEIN DEGRADERS” (Ganymede Oncology, Inc., priority 2022, published 2026)

Assays:
Assay type in all cases: cell-based
A549 = assay: Cancer cell viability, A549 (CellTiter-Glo); conditions: Homo sapiens, 72 h, A549 cells, 3 days, read-out: Cellular IC50 (μM) A549
Procedure, shortened: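 A549 and/or LK-2 lung carcinoma cells seeded overnight (20 K/mL A549; 35 K/mL LK-2), then exposed to compound for 3 days. Viability read as CellTiter-Glo luminescence after 15 min lysis; data fitted to curves.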

LK-2 = assay: Cancer cell viability, LK-2 (CellTiter-Glo); conditions: Homo sapiens, LK-2, 72 h, LK-2 cells, 3 days, read-out: Cellular IC50 (μM) LK-2
Procedure, shortened: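 A549 and LK-2 cells were seeded overnight at 20 K/mL and 35 K/mL respectively. They were then exposed for 3 days to nine three-fold dilutions, typically from 30 µM final. Viability was read as CellTiter-Glo luminescence after a 15 min lysis.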

Nrf2 [1] = target: T1, Nrf2 (Homo sapiens, UniProt Q16236); assay: Protein degradation assay in huH1 cells by Western blot; set-up: tested for protein degradation in huH1 cells; host or cells: huH1 (Huh1) human hepatoma cells
T1 sequence (Q16236 1-605): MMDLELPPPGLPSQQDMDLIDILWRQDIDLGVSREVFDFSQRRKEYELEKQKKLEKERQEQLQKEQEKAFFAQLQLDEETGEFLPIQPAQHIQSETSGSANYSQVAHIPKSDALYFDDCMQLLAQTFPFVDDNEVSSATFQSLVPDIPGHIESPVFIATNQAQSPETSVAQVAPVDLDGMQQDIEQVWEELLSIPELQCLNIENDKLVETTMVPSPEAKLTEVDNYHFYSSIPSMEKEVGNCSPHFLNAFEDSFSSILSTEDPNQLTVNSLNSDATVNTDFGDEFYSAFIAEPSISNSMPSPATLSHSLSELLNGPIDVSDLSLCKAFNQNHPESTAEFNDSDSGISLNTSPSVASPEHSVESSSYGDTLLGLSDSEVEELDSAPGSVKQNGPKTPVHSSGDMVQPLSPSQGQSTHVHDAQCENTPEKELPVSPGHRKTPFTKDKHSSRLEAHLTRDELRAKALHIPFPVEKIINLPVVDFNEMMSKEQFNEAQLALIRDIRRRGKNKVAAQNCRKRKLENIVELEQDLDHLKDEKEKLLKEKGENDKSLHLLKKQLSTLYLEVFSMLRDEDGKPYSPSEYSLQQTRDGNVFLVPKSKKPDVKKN
Procedure: Representative Compounds of the Disclosure were tested for protein degradation in huH1 cells (Vendor: JCRB: Cat #JCRB0199; Description: Human hepatoma) by Western blot analysis according to the following general protocol.
Day 0: Plated the Huh1 cells into 10-cm dishes (1.5×10^6/dish)
Day 1: Treated the cells with compounds at five concentrations, e.g., 0.01 μM, 0.04 μM, 0.11 μM, 0.33 μM and 1 μM; or 0.4 μM, 1.1 μM, 3.3 μM, 10 μM, and 30 μM.
Day 4: Harvested the cell pellets, spilt 1/3 of the pellet to extract RNA by Nucleospin RNA plus kit and measure Nrf2 and GPX2 by RT-PCR, the remaining 2/3 of the pellet to run Western blot analysis.
• a) Cell samples were lysed with lysis buffer (1×Cell lysis buffer added Protease inhibitor and phosphatase inhibitor) on ice for 5˜10 min and spun at 15,000 rpm in an Eppendorf microfuge for 15 min at 4° C. • b) The protein supernatant was collected in a new 1.5 ml tube and the protein concentrations were determined by the Pierce BCA kit (Thermo #23225). • c) Mixed protein sample with 5×SDS-PAGE loading buffer. • d) Boiled for 5 min. • e) Cooled at RT or on ice for 5 min. • f) Flash spun to bring down condensation prior to loading gel.
• a) After flash spinning the samples, 20 μg protein were loaded into the wells. • b) Using SDS-PAGE running buffer. • c) Run with Constant Voltage (70 V) for 1.5-2 hr. Membrane transfer • a) Assembled “sandwich” for Invitrogen iBlot. • b) Transferred for 9 min using P0 program. • c) Immersed membrane in Odyssey blocking buffer or 5% BSA for at least 1 hr.
• a) Incubated with 1st Antibody 1:500 diluted in blocking buffer overnight at 4° C. • b) Washed 4×15 min with 0.05-0.1% Tween 20 in TBS. • c) Incubated with secondary antibody 1:10K diluted in blocking buffer for at least 1 hr at RT. • d) Washed 3×15 min with 0.05-0.1% Tween 20 in TBS. • e) Detected with ODYSSEY (Li—COR) The results are provided in Table 5.

Nrf2 [2] = target: T1, Nrf2; assay: Nrf2 degradation in A549 HiBiT-Nrf2 cells, Nano-Glo HiBiT lytic detection (HiBiT readout); set-up: host or cells: A549 HiBiT-Nrf2 cells (engineered line bought from Promega)
Procedure, shortened: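 A549 HiBiT-Nrf2 cells seeded at 5,000 cells/well in Ham's F-12 with 10% FBS, then treated next day for 6 h and 20 h at 37 °C, 5% CO2. Nrf2 degradation read by Nano-Glo HiBiT lytic luminescence after 30 min at room temperature; staurosporine served as control.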

[3] = X marks the class 0.1-1 μM, read-out: DC50 huHI1 cells 0.1-1 μM

IC50 (A549) | IC50 (LK-2) | DC50 (Nrf2 [1]; [3]) | DC50 (Nrf2 [1]; X marks the class >10 μM, read-out: DC50 huHI1 cells >10 μM) | DC50 (Nrf2 [2]; 6 h, read-out: DC50 (nM) at 6 h) | DC50 (Nrf2 [2]; 20 h, read-out: DC50 (nM) at 20 h) | SMILES
0.1 µM | 0.04 µM | 100 to 1000 nM | – | – | – | Cc1ccccc1C(=O)N1CCc2cc(-c3nc(NC(=O)Cc4cccc(OCCOCCNc5cccc6c5C(=O)N(C5CCC(=O)NC5=O)C6=O)c4)sc3C)ccc21 (centres unmarked) [Cpd. No. 1, 2-(3-(2-(2-((2-(2,6-dioxopiperidin-3-yl)-1,3-dioxoisoindolin-4-yl)amino)ethoxy)ethoxy)phenyl)-N-(5-methyl-4-(1-(2-methylbenzoyl)indolin-5-yl)thiazol-2-yl)acetamide]
> 30 µM | – | – | > 10000 nM | – | – | Cc1ccccc1C(=O)N1CCc2cc(-c3nc(NC(=O)Cc4cccc(OCCOCCOCCNc5cccc6c5C(=O)N(C5CCC(=O)NC5=O)C6=O)c4)sc3C)ccc21 (centres unmarked) [Cpd. No. 2, 2-(3-(2-(2-(2-((2-(2,6-dioxopiperidin-3-yl)-1,3-dioxoisoindolin-4-yl)amino)ethoxy)ethoxy)ethoxy)phenyl)-N-(5-methyl-4-(1-(2-methylbenzoyl)indolin-5-yl)thiazol-2-yl)acetamide]
~30 µM | 0.3 µM | 100 to 1000 nM | – | > 3000 nM | > 3000 nM | Cc1ccccc1C(=O)N1CCc2cc(-c3nc(NC(=O)Cc4cccc(OCCOCCOc5cccc6c5C(=O)N(C5CCC(=O)NC5=O)C6=O)c4)sc3C)ccc21 (centres unmarked) [Cpd. No. 12, 2-(3-(2-(2-((2-(2,6-dioxopiperidin-3-yl)-1,3-dioxoisoindolin-4-yl)oxy)ethoxy)ethoxy)phenyl)-N-(5-methyl-4-(1-(2-methylbenzoyl)indolin-5-yl)thiazol-2-yl)acetamide]
– | – | 100 to 1000 nM | – | – | – | Cc1ccccc1C(=O)N1CCc2cc(-c3nc(NC(=O)Cc4cccc(OCCOCCOCCOCCOc5ccc6c(c5)C(=O)N(C5CCC(=O)NC5=O)C6=O)c4)sc3C)ccc21 (centres unmarked) [Cpd. No. 13, 2-(3-(2-(2-(2-(2-((2-(2,6-dioxopiperidin-3-yl)-1,3-dioxoisoindolin-5-yl)oxy)ethoxy)ethoxy)ethoxy)ethoxy)phenyl)-N-(5-methyl-4-(1-(2-methylbenzoyl)indolin-5-yl)thiazol-2-yl)acetamide]
